We go through 6 molecules from patent publication US20060271062A1 (priority 2005, published 2006).

Like-named read-outs stand apart in the source and are kept apart here.

The subject of one data set is lens epithelial cell. Conditions: in vitro; cited from earlier work.
Data set [1] deals with residual lens epithelial cells. The settings on record: rabbit, in vivo.
Data set [2] deals with residual lens epithelial cells. In kind it is cell-based, human.
The subject of data set [3] is lens epithelial cells. Conditions: rabbit, in vivo.
Data set [4] concerns lens epithelial cells. In kind it is cell-based, human.
The next data set relates to trabecular meshwork. Conditions: cited from earlier work.
Data set [5] has as its system residual lens epithelial cells. Description: Intracapsular latrunculin-B during extracapsular lens extraction in rabbits (Example 1). In kind it is in vivo, rabbit. The settings on record: 2 μM.
Data set [6] concerns lens, lens capsule or corneal endothelium and other adjacent tissues. The settings on record: outflow facility-effective concentrations, infusion for 45-90 min; cited from earlier work.
Setting [7] is: 1 ml intracapsular for 10 minutes then 5 min irrigation/aspiration, vehicle 0.25% DMSO, light microscopy of fixed capsular bag.

With `CO[C@@]12[C@H](COC(N)=O)C3=C(C(=O)C(C)=C(N)C3=O)N1C[C@@H]1N[C@@H]12` [mitomycin C], the “Inhibiting lens epithelial cell proliferation” value in the data set with lens epithelial cell is recorded as “effective”.
Regarding `COc1cccc2c1C(=O)c1c(O)c3c(c(O)c1C2=O)C[C@@](O)(C(C)=O)C[C@@H]3O[C@H]1C[C@H](N)[C@H](O)[C@H](C)O1` [daunomycin], in the data set on lens epithelial cell, the “Inhibiting lens epithelial cell proliferation” value is recorded as “effective”.
`O=c1[nH]cc(F)c(=O)[nH]1` [5-fluorouracil]: the “Inhibiting lens epithelial cell proliferation” value in the data set on lens epithelial cell was “effective”.
As for `CC1CNCCN1S(=O)(=O)c1cccc2cnccc12` (stereo not drawn) [H-7, 1-(5-isoquinolinyl-sulfonyl)-2-methylpiperazine], the “Lens epithelial cells removed in comparison to control vehicle, determined by LM” value in data set [1] and in data set [2] was “more lens epithelial cells be removed” in each case. Also, the “PCO formation or severity in comparison to control vehicle” value in the data set on lens epithelial cells [3] and in the data set on lens epithelial cells [4] was “prevent the formation or reduce the severity of PCO” throughout. Further, the Outflow facility entry with trabecular meshwork (monkey, in vivo) was “significantly increased”.
For the molecule `C/C1=C/C(=O)O[C@@H]2C[C@@H](CC[C@H](C)/C=C\CC1)O[C@@](O)([C@@H]1CSC(=O)N1)C2` [latrunculin-B], the “Clearance of residual lens epithelial cells during the extracapsular lens extraction” value in data set [5] is recorded as “facilitated the clearance”. The “Area A (dirty area with dense residual materials): treated eye versus vehicle-treated eye” value in data set [5] (setting [7]) is “no difference”. In addition, in data set [5] (setting [7]), the “Area B (relatively clean area): residual lens epithelial cells versus vehicle-treated eye” value is on record as “fewer residual lens epithelial cells”. The “Lens epithelial cells removed in comparison to control vehicle, determined by LM” value in data set [1] and in data set [2] was “more lens epithelial cells be removed” in each case. The “PCO formation or severity in comparison to control vehicle” value in the data set on lens epithelial cells [3] and in the data set on lens epithelial cells [4] was “prevent the formation or reduce the severity of PCO” in each case. Moreover, the Outflow facility entry with trabecular meshwork (living monkeys, all concentrations named in b65 (latrunculin-B 0.5-2 μM, 0.01% topical; H-7 100-300 μM, 5% topical)) is listed as “significantly increased”. Moreover, in data set [6], the “Observable damage to the lens, lens capsule or corneal endothelium and other adjacent tissues” value is given as “did not induce any observable damage”.
With `COc1cc2c(c(OC)c1OC)-c1ccc(OC)c(=O)cc1[C@@H](NC(C)=O)CC2` [colchicine], the “Inhibiting lens epithelial cell proliferation” value in the data set with lens epithelial cell is listed as “effective”.
